Assay results: PubChem BioAssay (NCI)
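Five compound concentrations were applied to cells in 96-well plates for 48 hours; endpoints were derived by simple linear interpolation of the resulting dose-response curve. TGI: total growth inhibition.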

Columns and labels:
Experiment in all cases: DTP human tumour cell line panel, 48 h
786-0 renal = tested on: 786-0 renal
A549 NSCLC = tested on: A549 NSCLC
ACHN renal = tested on: ACHN renal
BT-549 breast = tested on: BT-549 breast
CAKI-1 renal = tested on: CAKI-1 renal
CCRF-CEM leukemia = tested on: CCRF-CEM leukemia
COLO 205 colon = tested on: COLO 205 colon
DU-145 prostate = tested on: DU-145 prostate
EKVX NSCLC = tested on: EKVX NSCLC
HCC-2998 colon = tested on: HCC-2998 colon
HCT-116 colon = tested on: HCT-116 colon
HCT-15 colon = tested on: HCT-15 colon
HOP-62 NSCLC = tested on: HOP-62 NSCLC
HS 578T breast = tested on: HS 578T breast
HT29 colon = tested on: HT29 colon
IGROV1 ovarian = tested on: IGROV1 ovarian
K-562 leukemia = tested on: K-562 leukemia
KM12 colon = tested on: KM12 colon
MALME-3M melanoma = tested on: MALME-3M melanoma
MDA-MB-231 breast = tested on: MDA-MB-231 breast
MOLT-4 leukemia = tested on: MOLT-4 leukemia
NCI-H226 lung = tested on: NCI-H226 lung
NCI-H23 lung = tested on: NCI-H23 lung
NCI-H460 lung = tested on: NCI-H460 lung
NCI-H522 lung = tested on: NCI-H522 lung
NCI/ADR-RES ovarian = tested on: NCI/ADR-RES ovarian
OVCAR-3 ovarian = tested on: OVCAR-3 ovarian
OVCAR-5 ovarian = tested on: OVCAR-5 ovarian
OVCAR-8 ovarian = tested on: OVCAR-8 ovarian
RXF 393 renal = tested on: RXF 393 renal
SF-268 CNS = tested on: SF-268 CNS
SF-539 CNS = tested on: SF-539 CNS
SK-MEL-28 melanoma = tested on: SK-MEL-28 melanoma
SK-MEL-5 melanoma = tested on: SK-MEL-5 melanoma
SNB-75 CNS = tested on: SNB-75 CNS
SW-620 colon = tested on: SW-620 colon
T-47D breast = tested on: T-47D breast
UACC-62 melanoma = tested on: UACC-62 melanoma
UO-31 renal = tested on: UO-31 renal
HL-60(TB) leukemia = tested on: HL-60(TB) leukemia
RPMI-8226 leukemia = tested on: RPMI-8226 leukemia
SK-MEL-2 melanoma = tested on: SK-MEL-2 melanoma
SK-OV-3 ovarian = tested on: SK-OV-3 ovarian
SNB-19 CNS = tested on: SNB-19 CNS
SR leukemia = tested on: SR leukemia
TK-10 renal = tested on: TK-10 renal
UACC-257 melanoma = tested on: UACC-257 melanoma

Structure (SMILES): CC(C)(C)c1ccc(O)c(C(O)c2cccnc2)c1 (configuration not stated)
- TGI (786-0 renal): > 100 µM
- TGI (A549 NSCLC): > 100 µM
- TGI (ACHN renal): > 100 µM
- TGI (BT-549 breast): > 100 µM
- TGI (CAKI-1 renal): > 100 µM
- TGI (CCRF-CEM leukemia): > 100 µM
- TGI (COLO 205 colon): > 100 µM
- TGI (DU-145 prostate): > 100 µM
- TGI (EKVX NSCLC): > 100 µM
- TGI (HCC-2998 colon): > 100000 nM
- TGI (HCT-116 colon): > 100000 nM
- TGI (HCT-15 colon): > 100 µM
- TGI (HOP-62 NSCLC): > 100 µM
- TGI (HS 578T breast): > 100000 nM
- TGI (HT29 colon): > 100 µM
- TGI (IGROV1 ovarian): > 100 µM
- TGI (K-562 leukemia): > 100 µM
- TGI (KM12 colon): > 100 µM
- TGI (MALME-3M melanoma): > 100 µM
- TGI (MDA-MB-231 breast): > 100 µM
- TGI (MOLT-4 leukemia): > 100000 nM
- TGI (NCI-H226 lung): > 100 µM
- TGI (NCI-H23 lung): > 100 µM
- TGI (NCI-H460 lung): > 100 µM
- TGI (NCI-H522 lung): > 100 µM
- TGI (NCI/ADR-RES ovarian): > 100 µM
- TGI (OVCAR-3 ovarian): > 100 µM
- TGI (OVCAR-5 ovarian): > 100 µM
- TGI (OVCAR-8 ovarian): > 100 µM
- TGI (RXF 393 renal): > 100 µM
- TGI (SF-268 CNS): > 100 µM
- TGI (SF-539 CNS): > 100000 nM
- TGI (SK-MEL-28 melanoma): > 100 µM
- TGI (SK-MEL-5 melanoma): > 100 µM
- TGI (SNB-75 CNS): > 100 µM
- TGI (SW-620 colon): > 100 µM
- TGI (T-47D breast): 53.7 µM
- TGI (UACC-62 melanoma): > 100 µM
- TGI (UO-31 renal): > 100 µM

Structure (SMILES): CCCCC(=O)OC[n+]1ccc2c(C)c3[nH]c4ccc(OC)cc4c3c(C)c2c1
- TGI (ACHN renal): 3.84 µM
- TGI (CAKI-1 renal): 4.64 µM
- TGI (DU-145 prostate): 4.82 µM
- TGI (EKVX NSCLC): 3.6 µM
- TGI (HCC-2998 colon): 1800 nM
- TGI (HCT-116 colon): 1370 nM
- TGI (HL-60(TB) leukemia): > 100 µM
- TGI (HS 578T breast): 2730 nM
- TGI (MALME-3M melanoma): > 33.3 µM
- TGI (MOLT-4 leukemia): 1130 nM
- TGI (OVCAR-5 ovarian): 5.61 µM
- TGI (RPMI-8226 leukemia): 983 nM
- TGI (SF-268 CNS): > 100 µM
- TGI (SF-539 CNS): 1920 nM
- TGI (SK-MEL-2 melanoma): > 100 µM
- TGI (SK-OV-3 ovarian): 2930 nM
- TGI (SNB-19 CNS): 4.35 µM
- TGI (SNB-75 CNS): 27.2 µM
- TGI (SR leukemia): 1040 nM
- TGI (T-47D breast): 14.2 µM
- TGI (TK-10 renal): 15.2 µM
- TGI (UACC-257 melanoma): > 34.4 µM
- TGI (UO-31 renal): 4.08 µM
